{
  "source": "paper PMC7614683",
  "about": "“A small molecule PI3Kα activator for cardioprotection and neuroregeneration” (Nature, 2023)",
  "test_in_all_cases": "SelectScreen Z-LYTE kinase activity assay (SI Table 6)",
  "format_in_all_cases": "biochemical",
  "key": {"[1]": {"biological_target": "protein kinases of the Z-LYTE panel (Homo sapiens, UniProt Q9HCP0)", "sequence (Q9HCP0 whole entry)": "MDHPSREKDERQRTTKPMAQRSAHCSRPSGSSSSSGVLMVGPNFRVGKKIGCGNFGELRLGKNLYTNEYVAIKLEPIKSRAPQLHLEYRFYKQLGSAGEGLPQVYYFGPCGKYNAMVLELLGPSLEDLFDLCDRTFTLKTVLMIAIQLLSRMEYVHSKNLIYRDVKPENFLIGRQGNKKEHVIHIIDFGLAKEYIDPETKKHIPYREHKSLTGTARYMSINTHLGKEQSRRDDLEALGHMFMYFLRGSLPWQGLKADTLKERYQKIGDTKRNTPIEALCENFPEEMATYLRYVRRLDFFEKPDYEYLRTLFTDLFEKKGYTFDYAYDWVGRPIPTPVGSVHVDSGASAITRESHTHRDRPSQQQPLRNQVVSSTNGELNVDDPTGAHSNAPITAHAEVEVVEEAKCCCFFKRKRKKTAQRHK", "in_short": "(§1)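 A counterscreen of 133 protein and 7 lipid kinases was run with one compound concentration, 1 μM 1938, in SelectScreen Adapta, Lantha or Z-LYTE assays.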"}, "[2]": {"biological_target": "protein kinases of the Z-LYTE panel (Homo sapiens, UniProt P49137)", "sequence (P49137 whole entry)": "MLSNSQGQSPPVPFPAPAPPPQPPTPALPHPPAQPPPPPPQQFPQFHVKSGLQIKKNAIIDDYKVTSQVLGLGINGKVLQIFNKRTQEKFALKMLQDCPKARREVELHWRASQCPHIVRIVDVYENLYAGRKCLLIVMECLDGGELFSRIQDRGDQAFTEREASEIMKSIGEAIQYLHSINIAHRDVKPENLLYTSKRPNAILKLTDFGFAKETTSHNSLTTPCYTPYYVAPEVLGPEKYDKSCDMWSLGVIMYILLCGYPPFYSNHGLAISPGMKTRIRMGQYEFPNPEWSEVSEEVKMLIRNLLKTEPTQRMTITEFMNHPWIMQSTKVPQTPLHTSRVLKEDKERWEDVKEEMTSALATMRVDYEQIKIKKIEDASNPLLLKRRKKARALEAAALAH", "in_short": "as §1"}, "[3]": {"biological_target": "T1, protein kinases of the Z-LYTE panel (Homo sapiens, UniProt O15530)", "T1 sequence (O15530 1-556)": "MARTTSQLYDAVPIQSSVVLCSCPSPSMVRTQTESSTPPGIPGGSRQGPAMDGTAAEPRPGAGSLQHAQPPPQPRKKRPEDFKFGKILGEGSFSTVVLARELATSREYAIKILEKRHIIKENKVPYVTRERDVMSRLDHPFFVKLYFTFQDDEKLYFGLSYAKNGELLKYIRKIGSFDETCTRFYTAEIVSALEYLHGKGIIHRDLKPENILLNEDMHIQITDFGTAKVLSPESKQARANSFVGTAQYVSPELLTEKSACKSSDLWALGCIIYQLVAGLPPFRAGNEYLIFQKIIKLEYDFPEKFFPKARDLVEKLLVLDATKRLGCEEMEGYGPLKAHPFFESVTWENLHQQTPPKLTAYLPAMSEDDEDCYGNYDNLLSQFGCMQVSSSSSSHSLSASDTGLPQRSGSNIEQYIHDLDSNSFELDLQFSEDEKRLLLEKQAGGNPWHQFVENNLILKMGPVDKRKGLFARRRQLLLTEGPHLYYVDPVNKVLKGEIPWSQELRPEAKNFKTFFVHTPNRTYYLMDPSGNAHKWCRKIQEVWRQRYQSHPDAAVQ", "conditions": "PDK1, 1000 nM, [ATP] 100 μM", "in_short": "as §1"}, "[4]": {"biological_target": "protein kinases of the Z-LYTE panel (Homo sapiens, UniProt Q15303)", "in_short": "as §1"}, "[5]": {"biological_target": "protein kinases of the Z-LYTE panel (Homo sapiens, UniProt P07948)", "sequence (P07948 whole entry)": "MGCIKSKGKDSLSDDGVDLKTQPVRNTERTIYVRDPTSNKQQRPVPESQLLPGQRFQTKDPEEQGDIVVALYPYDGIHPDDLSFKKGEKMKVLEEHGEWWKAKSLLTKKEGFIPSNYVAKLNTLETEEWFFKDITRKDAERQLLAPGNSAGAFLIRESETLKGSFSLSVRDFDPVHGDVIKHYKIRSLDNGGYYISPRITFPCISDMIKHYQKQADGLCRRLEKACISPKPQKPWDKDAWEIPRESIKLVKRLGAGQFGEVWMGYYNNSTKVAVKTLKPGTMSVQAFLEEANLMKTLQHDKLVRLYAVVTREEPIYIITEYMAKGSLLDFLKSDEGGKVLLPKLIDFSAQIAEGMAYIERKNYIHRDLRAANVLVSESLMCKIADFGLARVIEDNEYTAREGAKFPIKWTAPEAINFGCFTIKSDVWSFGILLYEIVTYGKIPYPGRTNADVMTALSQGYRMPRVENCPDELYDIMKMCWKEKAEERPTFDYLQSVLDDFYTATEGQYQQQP", "in_short": "as §1"}, "[6]": {"biological_target": "protein kinases of the Z-LYTE panel (Homo sapiens, UniProt P80192)", "sequence (P80192 whole entry)": "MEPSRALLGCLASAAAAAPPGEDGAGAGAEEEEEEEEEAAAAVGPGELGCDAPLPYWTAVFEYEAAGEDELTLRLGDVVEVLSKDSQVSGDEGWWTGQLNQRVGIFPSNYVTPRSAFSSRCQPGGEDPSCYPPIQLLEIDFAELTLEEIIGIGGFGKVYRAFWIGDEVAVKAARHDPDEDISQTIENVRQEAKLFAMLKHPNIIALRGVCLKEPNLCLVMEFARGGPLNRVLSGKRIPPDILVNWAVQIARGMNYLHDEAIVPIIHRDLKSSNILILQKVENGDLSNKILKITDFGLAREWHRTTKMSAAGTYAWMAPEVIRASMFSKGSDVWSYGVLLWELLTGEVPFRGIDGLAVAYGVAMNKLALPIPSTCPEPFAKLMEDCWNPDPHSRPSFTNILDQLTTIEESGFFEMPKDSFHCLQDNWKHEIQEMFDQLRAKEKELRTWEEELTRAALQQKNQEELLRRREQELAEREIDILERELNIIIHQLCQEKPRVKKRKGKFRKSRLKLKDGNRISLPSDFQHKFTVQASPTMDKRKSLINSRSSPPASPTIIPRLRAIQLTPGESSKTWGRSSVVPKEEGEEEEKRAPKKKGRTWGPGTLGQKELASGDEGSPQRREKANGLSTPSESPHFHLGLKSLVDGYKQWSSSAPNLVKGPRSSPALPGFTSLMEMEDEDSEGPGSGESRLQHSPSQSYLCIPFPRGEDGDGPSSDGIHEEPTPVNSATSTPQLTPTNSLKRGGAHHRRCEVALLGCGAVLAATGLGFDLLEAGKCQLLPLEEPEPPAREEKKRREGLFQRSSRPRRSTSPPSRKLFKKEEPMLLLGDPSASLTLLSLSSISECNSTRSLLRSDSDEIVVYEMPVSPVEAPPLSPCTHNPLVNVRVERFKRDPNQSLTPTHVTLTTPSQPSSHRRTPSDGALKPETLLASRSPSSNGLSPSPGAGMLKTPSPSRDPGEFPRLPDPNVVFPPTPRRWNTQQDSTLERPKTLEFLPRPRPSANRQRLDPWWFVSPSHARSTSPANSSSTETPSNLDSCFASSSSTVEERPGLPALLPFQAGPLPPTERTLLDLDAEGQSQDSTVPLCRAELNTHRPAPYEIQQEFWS", "in_short": "as §1"}, "[7]": {"biological_target": "protein kinases of the Z-LYTE panel (Homo sapiens, UniProt P15056)", "conditions": "BRAF, 1000 nM, [ATP] 100 μM", "in_short": "as §1"}, "[8]": {"biological_target": "protein kinases of the Z-LYTE panel (Homo sapiens, UniProt P49761)", "in_short": "as §1"}, "[9]": {"biological_target": "protein kinases of the Z-LYTE panel (Homo sapiens, UniProt P54646)", "sequence (P54646 whole entry)": "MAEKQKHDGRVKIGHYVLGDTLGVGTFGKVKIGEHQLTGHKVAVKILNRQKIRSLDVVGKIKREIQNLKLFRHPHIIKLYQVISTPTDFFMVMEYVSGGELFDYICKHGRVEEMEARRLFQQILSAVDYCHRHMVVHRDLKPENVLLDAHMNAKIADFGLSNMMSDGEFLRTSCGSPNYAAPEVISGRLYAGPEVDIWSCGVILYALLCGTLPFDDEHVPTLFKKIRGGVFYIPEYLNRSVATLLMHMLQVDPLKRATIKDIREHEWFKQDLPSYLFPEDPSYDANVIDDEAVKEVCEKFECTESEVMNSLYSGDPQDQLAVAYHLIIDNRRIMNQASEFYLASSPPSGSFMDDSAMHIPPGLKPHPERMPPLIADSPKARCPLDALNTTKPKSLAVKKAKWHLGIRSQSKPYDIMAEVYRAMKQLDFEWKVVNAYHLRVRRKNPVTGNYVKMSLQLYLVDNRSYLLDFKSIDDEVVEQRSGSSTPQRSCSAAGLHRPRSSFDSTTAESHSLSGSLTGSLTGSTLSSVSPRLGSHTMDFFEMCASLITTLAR", "in_short": "as §1"}, "[10]": {"biological_target": "protein kinases of the Z-LYTE panel (Homo sapiens, UniProt P06213)", "sequence (P06213 28-1382)": "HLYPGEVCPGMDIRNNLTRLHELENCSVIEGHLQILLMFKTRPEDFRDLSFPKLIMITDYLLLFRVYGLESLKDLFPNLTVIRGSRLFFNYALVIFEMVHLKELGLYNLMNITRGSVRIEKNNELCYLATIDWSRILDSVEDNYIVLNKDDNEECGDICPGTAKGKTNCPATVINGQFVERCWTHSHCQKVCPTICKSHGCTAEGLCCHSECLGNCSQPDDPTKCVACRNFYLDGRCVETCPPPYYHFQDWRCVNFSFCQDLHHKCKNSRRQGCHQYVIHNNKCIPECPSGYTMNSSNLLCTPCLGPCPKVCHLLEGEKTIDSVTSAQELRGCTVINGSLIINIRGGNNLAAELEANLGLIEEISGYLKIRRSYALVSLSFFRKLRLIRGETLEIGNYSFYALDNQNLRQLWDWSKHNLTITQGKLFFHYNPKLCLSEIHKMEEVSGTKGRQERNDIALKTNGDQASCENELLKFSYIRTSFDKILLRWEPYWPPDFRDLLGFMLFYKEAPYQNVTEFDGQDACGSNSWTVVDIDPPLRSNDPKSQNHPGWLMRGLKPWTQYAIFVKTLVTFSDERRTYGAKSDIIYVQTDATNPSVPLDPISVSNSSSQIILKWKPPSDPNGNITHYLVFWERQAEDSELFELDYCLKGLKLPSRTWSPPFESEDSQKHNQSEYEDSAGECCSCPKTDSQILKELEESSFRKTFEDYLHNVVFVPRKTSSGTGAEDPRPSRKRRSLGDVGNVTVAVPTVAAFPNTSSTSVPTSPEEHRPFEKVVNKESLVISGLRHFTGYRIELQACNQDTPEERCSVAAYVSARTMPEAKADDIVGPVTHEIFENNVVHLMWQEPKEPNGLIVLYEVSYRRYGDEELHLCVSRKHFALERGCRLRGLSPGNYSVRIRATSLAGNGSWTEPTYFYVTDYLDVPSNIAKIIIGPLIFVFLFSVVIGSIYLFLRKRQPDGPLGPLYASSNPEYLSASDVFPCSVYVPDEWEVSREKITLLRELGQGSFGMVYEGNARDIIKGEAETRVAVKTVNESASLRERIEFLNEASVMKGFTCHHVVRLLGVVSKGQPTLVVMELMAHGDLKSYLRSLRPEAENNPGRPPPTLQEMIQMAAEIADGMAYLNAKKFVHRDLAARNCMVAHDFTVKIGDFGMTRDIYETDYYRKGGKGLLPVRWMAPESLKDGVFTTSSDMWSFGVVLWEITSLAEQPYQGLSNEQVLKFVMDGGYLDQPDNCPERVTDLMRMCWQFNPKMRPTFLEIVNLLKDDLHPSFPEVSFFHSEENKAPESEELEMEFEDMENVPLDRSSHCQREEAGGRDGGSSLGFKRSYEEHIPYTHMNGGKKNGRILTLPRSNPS", "in_short": "as §1"}, "[11]": {"biological_target": "protein kinases of the Z-LYTE panel (Homo sapiens, UniProt P23443)", "sequence (P23443 whole entry)": "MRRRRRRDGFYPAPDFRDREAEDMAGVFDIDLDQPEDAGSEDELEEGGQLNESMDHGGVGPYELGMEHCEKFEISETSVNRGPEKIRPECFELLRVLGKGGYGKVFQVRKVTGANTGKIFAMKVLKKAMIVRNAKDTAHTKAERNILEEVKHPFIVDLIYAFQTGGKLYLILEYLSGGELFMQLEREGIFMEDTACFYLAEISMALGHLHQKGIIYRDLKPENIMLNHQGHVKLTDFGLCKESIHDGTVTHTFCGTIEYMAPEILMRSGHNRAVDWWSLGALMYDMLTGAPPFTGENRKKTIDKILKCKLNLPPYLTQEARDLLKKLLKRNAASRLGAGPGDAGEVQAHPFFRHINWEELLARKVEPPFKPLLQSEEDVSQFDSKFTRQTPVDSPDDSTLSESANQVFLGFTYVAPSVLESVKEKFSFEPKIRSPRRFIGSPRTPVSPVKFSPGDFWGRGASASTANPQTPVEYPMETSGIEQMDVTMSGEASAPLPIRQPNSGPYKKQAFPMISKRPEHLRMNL", "in_short": "as §1"}, "[12]": {"biological_target": "protein kinases of the Z-LYTE panel (Homo sapiens, UniProt P42684)", "in_short": "as §1"}, "[13]": {"biological_target": "protein kinases of the Z-LYTE panel (Homo sapiens, UniProt P08581)", "in_short": "as §1"}},
  "note": "Like-named read-outs stand apart in the source and are kept apart here.",
  "data": [
    {"smiles": "CCN1CCN(c2ccc(Nc3cc(Nc4cccc5c4N(C(C)=O)CC5)ccn3)cc2)CC1", "note": "[Compound 1938]", "values": [
      {"measurement": "inhibition at 1 µM", "setting": "[1]; read-out: % Inhibition Point 1", "value": 0.622, "unit": "%"},
      {"measurement": "inhibition at 1 µM", "setting": "[1]; read-out: % Inhibition Point 2", "value": -0.215, "unit": "%"},
      {"measurement": "inhibition at 1 µM", "setting": "[1]; read-out: % Inhibition mean", "value": 0.204, "unit": "%"},
      {"measurement": "inhibition at 1 µM", "setting": "[2]; read-out: % Inhibition Point 1", "value": -0.0637, "unit": "%"},
      {"measurement": "inhibition at 1 µM", "setting": "[2]; read-out: % Inhibition Point 2", "value": -0.692, "unit": "%"},
      {"measurement": "inhibition at 1 µM", "setting": "[2]; read-out: % Inhibition mean", "value": -0.378, "unit": "%"},
      {"measurement": "inhibition at 1 µM", "setting": "[3]; read-out: % Inhibition Point 1", "value": 6, "unit": "%"},
      {"measurement": "inhibition at 1 µM", "setting": "[3]; read-out: % Inhibition Point 2", "value": 7, "unit": "%"},
      {"measurement": "inhibition at 1 µM", "setting": "[3]; read-out: % Inhibition mean", "value": 6, "unit": "%"},
      {"measurement": "inhibition at 1 µM", "setting": "[4]; read-out: % Inhibition Point 1", "value": 9, "unit": "%"},
      {"measurement": "inhibition at 1 µM", "setting": "[4]; read-out: % Inhibition Point 2", "value": 9.48, "unit": "%"},
      {"measurement": "inhibition at 1 µM", "setting": "[4]; read-out: % Inhibition mean", "value": 9, "unit": "%"},
      {"measurement": "inhibition at 1 µM", "setting": "[5]; read-out: % Inhibition Point 1", "value": 11, "unit": "%"},
      {"measurement": "inhibition at 1 µM", "setting": "[5]; read-out: % Inhibition Point 2", "value": 9, "unit": "%"},
      {"measurement": "inhibition at 1 µM", "setting": "[5]; read-out: % Inhibition mean", "value": 10, "unit": "%"},
      {"measurement": "inhibition at 1 µM", "setting": "[6]; read-out: % Inhibition Point 1", "value": 6.46, "unit": "%"},
      {"measurement": "inhibition at 1 µM", "setting": "[6]; read-out: % Inhibition Point 2", "value": 4, "unit": "%"},
      {"measurement": "inhibition at 1 µM", "setting": "[6]; read-out: % Inhibition mean", "value": 5, "unit": "%"},
      {"measurement": "inhibition at 1 µM", "setting": "[7]; read-out: % Inhibition Point 1", "value": 13, "unit": "%"},
      {"measurement": "inhibition at 1 µM", "setting": "[7]; read-out: % Inhibition Point 2", "value": 12, "unit": "%"},
      {"measurement": "inhibition at 1 µM", "setting": "[7]; read-out: % Inhibition mean", "value": 13, "unit": "%"},
      {"measurement": "inhibition at 1 µM", "setting": "[8]; read-out: % Inhibition Point 1", "value": -1, "unit": "%"},
      {"measurement": "inhibition at 1 µM", "setting": "[8]; read-out: % Inhibition Point 2", "value": 0.422, "unit": "%"},
      {"measurement": "inhibition at 1 µM", "setting": "[8]; read-out: % Inhibition mean", "value": -0.267, "unit": "%"},
      {"measurement": "inhibition at 1 µM", "setting": "[9]; read-out: % Inhibition Point 1", "value": 8, "unit": "%"},
      {"measurement": "inhibition at 1 µM", "setting": "[9]; read-out: % Inhibition Point 2", "value": 7, "unit": "%"},
      {"measurement": "inhibition at 1 µM", "setting": "[9]; read-out: % Inhibition mean", "value": 8, "unit": "%"},
      {"measurement": "inhibition at 1 µM", "setting": "[10]; read-out: % Inhibition Point 1", "value": 6.51, "unit": "%"},
      {"measurement": "inhibition at 1 µM", "setting": "[10]; read-out: % Inhibition Point 2", "value": 5, "unit": "%"},
      {"measurement": "inhibition at 1 µM", "setting": "[10]; read-out: % Inhibition mean", "value": 5.64, "unit": "%"},
      {"measurement": "inhibition at 1 µM", "setting": "[11]; read-out: % Inhibition Point 1", "value": 2.67, "unit": "%"},
      {"measurement": "inhibition at 1 µM", "setting": "[11]; read-out: % Inhibition Point 2", "value": -0.609, "unit": "%"},
      {"measurement": "inhibition at 1 µM", "setting": "[11]; read-out: % Inhibition mean", "value": 1, "unit": "%"},
      {"measurement": "inhibition at 1 µM", "setting": "[12]; read-out: % Inhibition Point 1", "value": 22, "unit": "%"},
      {"measurement": "inhibition at 1 µM", "setting": "[12]; read-out: % Inhibition Point 2", "value": 20, "unit": "%"},
      {"measurement": "inhibition at 1 µM", "setting": "[12]; read-out: % Inhibition mean", "value": 21, "unit": "%"},
      {"measurement": "inhibition at 1 µM", "setting": "[13]; read-out: % Inhibition Point 1", "value": 8, "unit": "%"},
      {"measurement": "inhibition at 1 µM", "setting": "[13]; read-out: % Inhibition Point 2", "value": 29, "unit": "%"},
      {"measurement": "inhibition at 1 µM", "setting": "[13]; read-out: % Inhibition mean", "value": 19, "unit": "%"}
    ]}
  ]
}
